Test results taken from patent US20140038822A1, “USE OF SUBSTITUTED SPIROCYCLIC SULFONAMIDOCARBOXYLIC ACIDS, CARBOXYLIC ESTERS THEREOF, CARBOXAMIDES THEREOF AND CARBONITRILES THEREOF OR SALTS THEREOF FOR ENHANCEMENT OF STRESS TOLERANCE IN PLANTS” (BAYER INTELLECTUAL PROPERTY GMBH, priority 2010, published 2014).

Key:
Format in all cases: in vivo
[1] = system: BRSNS (Brassica napus); assay: Drought stress test on crop plants in greenhouse, spray application, efficacy vs untreated stressed control (BRSNS); settings: dosage 250 g/ha, mean of three results
Protocol: (§1) Seeds of monocotyledonous and dicotyledonous crop plants were placed in sandy loam in wood-fiber pots, covered with soil and cultivated in a greenhouse under good growth conditions. The test plants were treated at the early leaf stage (BBCH10 BBCH13). To ensure uniform water supply before commencement of stress, the potted plants were supplied with the maximum amount of water immediately beforehand by dam irrigation and, after application, transferred in plastic inserts in order to prevent subsequent, excessively rapid drying. The inventive compounds, formulated in the form of wettable powders (WP), wettable granules (WG), suspension concentrates (SC) or emulsion concentrates (EC), were sprayed onto the green parts of the plants as an aqueous suspension at an equivalent water application rate of […] with addition of 0.2% wetting agent (agrotin). Substance application is followed immediately by stress treatment of the plants (cold or drought stress). For cold stress treatment, the plants were kept under the following controlled conditions: […]
(§2) After the recovery phase had ended, the intensities of damage were rated in visual comparison to untreated, unstressed controls of the same age (in the case of drought stress) or the same growth stage (in the case of cold stress). The intensity of damage was first assessed as a percentage (100%=plants have died, 0%=like control plants). […]

[2] = system: ZEAMX (Zea mays); assay: Drought stress test on crop plants in greenhouse, spray application, efficacy vs untreated stressed control (ZEAMX); settings: dosage 250 g/ha, efficacy = percentage reduction in the intensity of damage vs untreated stressed control, mean of three results
Protocol: as §1, §2

[3] = system: TRZAS (Triticum aestivum); assay: Drought stress test on crop plants in greenhouse, spray application, efficacy vs untreated stressed control (TRZAS); settings: dosage 25 g/ha, efficacy = percentage reduction in the intensity of damage vs untreated stressed control, mean of three results
Protocol: as §1, §2

COC(=O)C1(NS(=O)(=O)c2ccc(OC)cc2)CCC(OC)CC1 (stereo not drawn) [I.37-87, Methyl 4-methoxy-1-{[(4-methoxyphenyl)sulfonyl]amino}-cyclohexanecarboxylate]
>5%: EF (BRSNS): Efficacy = percentage reduction in the intensity of damage [1] | EF (ZEAMX) [2] | Efficacy (TRZAS) [3]
